Measurements: BindingDB's records for doi:10.1016/j.bmcl.2013.04.079 (Bristol-Myers Squibb, 2013)

Key:
[1] = Antagonist activity at human CCR1 assessed as inhibition of HCC-1-induced chemotaxis
[2] = Antagonist activity at human CCR1 assessed as inhibition of RANTES-induced chemotaxis
[3] = Antagonist activity at human CCR1 assessed as inhibition of MPIF-1-induced chemotaxis
[4] = Antagonist activity at human CCR1 assessed as inhibition of MIP1alpha-induced chemotaxis
[5] = Antagonist activity at human CCR1 assessed as inhibition of ieukotactin-1-induced chemotaxis

Row | Compound | IC50 [4] [nM] | other results
1 | CC(C)[C@@H](NC(=O)c1cccc(-c2ccccc2NC(N)=O)c1)C(=O)N1CCC(c2ccc(Cl)cc2)CC1 | 153 | 
2 | CC(C)[C@@H](NC(=O)c1cccc(S(N)(=O)=O)c1)C(=O)N1CCC(c2ccc(Cl)cc2)CC1 | 123 | 
3 | CC(C)[C@@H](NC(=O)Cc1ccncc1)C(=O)N1CCC(c2ccc(Cl)cc2)CC1 | 107 | 
4 | CC(C)[C@@H](NC(=O)c1cccc(-c2ccccc2NC(N)=O)c1)C(=O)N1CC[C@](O)(c2ccc(Cl)cc2)C(C)(C)C1 | 48 | 
5 | CC(C)[C@@H](NC(=O)c1ccc(F)c(O)c1)C(=O)N1CCC(c2ccc(Cl)cc2)CC1 | 48 | 
6 | CC(C)[C@@H](NC(=O)c1cccnc1)C(=O)N1CC[C@H](c2ccc(Cl)cc2)C(C)(C)C1 | 29 | 
7 | CC(C)[C@@H](NC(=O)c1cccnc1)C(=O)N1CC[C@](O)(c2ccc(Cl)cc2)C2(CC2)C1 | 21 | 
8 | CC(C)[C@@H](NC(=O)C1CCCC1)C(=O)N1CCN(c2ccc(Cl)cc2)C(C)(C)C1 | 18 | 
9 | CC(C)[C@@H](NC(=O)c1ccc(F)c(O)c1)C(=O)N1CC[C@](O)(c2ccc(Cl)cc2)C(C)(C)C1 | 13 | 
10 | CC(C)[C@@H](NC(=O)c1cccc(S(N)(=O)=O)c1)C(=O)N1CC[C@](O)(c2ccc(Cl)cc2)C(C)(C)C1 | 9.9 | 
11 | CC(C)[C@@H](NC(=O)c1cccc(C(=O)O)c1)C(=O)N1CC[C@](O)(c2ccc(Cl)cc2)C(C)(C)C1 | 8.9 | 
12 | CC(C)[C@@H](NC(=O)C1CCCC1(O)CCN1CCOCC1)C(=O)N1CC[C@](O)(c2ccc(Cl)cc2)C(C)(C)C1 (stereo partly drawn) | 8.3 | 
13 | CC(C)[C@@H](NC(=O)c1ccc(Cl)cc1)C(=O)N1CC[C@](O)(c2ccc(Cl)cc2)C(C)(C)C1 | 5.5 | 
14 | CC(C)[C@@H](NC(=O)c1ccccc1Cl)C(=O)N1CC[C@](O)(c2ccc(Cl)cc2)C(C)(C)C1 | 4.7 | 

More lines, main results first:

Row | IC50 [4] [nM] | Compound | other results
15 | 2.1 | CC(C)[C@@H](NC(=O)[C@@H]1CC[C@@H](O)C1)C(=O)N1CC[C@](O)(c2ccc(Cl)cc2)C(C)(C)C1 | IC50 [1]: 4 nM; IC50 [2]: 1 nM; IC50 [3]: 2.7 nM; IC50 [5]: 4.4 nM
16 | 5.6 | CC(C)[C@@H](NC(=O)[C@@H]1CCC[C@@H]1N)C(=O)N1CC[C@](O)(c2ccc(Cl)cc2)C(C)(C)C1 | 
17 | 3.1 | CC(C)[C@@H](NC(=O)[C@@H]1CCC[C@@H]1O)C(=O)N1CC[C@](O)(c2ccc(Cl)cc2)C(C)(C)C1 | 
18 | 15 | CC(=O)N[C@@H](C(=O)N1CC[C@](O)(c2ccc(Cl)cc2)C(C)(C)C1)C(C)C | 
19 | 12 | CC(C)[C@@H](NC(=O)[C@H]1CC[C@H](O)C1)C(=O)N1CC[C@](O)(c2ccc(Cl)cc2)C(C)(C)C1 | 
20 | 10 | CC(C)[C@@H](NC(=O)c1ccccc1)C(=O)N1CC[C@](O)(c2ccc(Cl)cc2)C(C)(C)C1 | 
21 | 6.1 | CC(C)[C@@H](NC(=O)c1cccnc1)C(=O)N1CC[C@](O)(c2ccc(Cl)cc2)C(C)(C)C1 | 
22 | 3.6 | CCC(=O)N[C@@H](C(=O)N1CC[C@](O)(c2ccc(Cl)cc2)C(C)(C)C1)C(C)C | 
23 | 3.5 | CC(C)[C@@H](NC(=O)Cc1ccncc1)C(=O)N1CC[C@](O)(c2ccc(Cl)cc2)C(C)(C)C1 | 
24 | 2.9 | CC(C)[C@@H](NC(=O)[C@@H]1CC[C@H](O)C1)C(=O)N1CC[C@](O)(c2ccc(Cl)cc2)C(C)(C)C1 | 
25 | 2.5 | CC(C)[C@@H](NC(=O)C1CCCC1)C(=O)N1CC[C@](O)(c2ccc(Cl)cc2)C(C)(C)C1 | 
26 | 1.9 | CC(C)CC(=O)N[C@@H](C(=O)N1CC[C@](O)(c2ccc(Cl)cc2)C(C)(C)C1)C(C)C | 
27 | 1.8 | CC(C)[C@@H](NC(=O)Cc1ccccc1)C(=O)N1CC[C@](O)(c2ccc(Cl)cc2)C(C)(C)C1 | 
28 | 1.2 | CC(C)CCC(=O)N[C@@H](C(=O)N1CC[C@](O)(c2ccc(Cl)cc2)C(C)(C)C1)C(C)C | 
29 | 1.1 | CC(C)[C@@H](NC(=O)[C@H]1CC[C@@H](O)C1)C(=O)N1CC[C@](O)(c2ccc(Cl)cc2)C(C)(C)C1 | 
